Reference: patent publication US20060199230A1, “Use of prostate specific antigen to predict drug response” (Hybritech Incorporated, priority 2005, published 2006)

Columns and labels:
[1] = system: total PSA, proPSA, free PSA and BPSA in serum; experiment: Serum PSA forms at Time 0 and 1 month of dutasteride treatment; drug response = prostate volume decrease of 10% or more at 12 months (Example I); assay type: in vivo, men
Procedure: (§1) A cohort of serum samples from men greater or equal to 50 years of age with BPH were used. The PSA range was from 1.5 to 10 ng/ml (median 3.2 ng/ml). International Prostate Symptom Score (IPSS) upon entry were 11-32 (moderate to severe, median 18.5). The median Qmax (urine flow rate in cc per second) was 9.3. Men received TRUS for prostate volume at time 0 and then received dutasteride in a blinded fashion at a rate of 0.5 mg per day. Serum was obtained at 0, 1, 3, and 12 months and was assayed for total PSA, proPSA, free PSA and BPSA. IPSS symptom scores were determined at 0, 1 and 12 months. Additional TRUS for prostate volume was performed at 12 months after the start of drug treatment.
Serum from placebo and drug-treated men were tested for levels of PSA forms at Time 0 (pretreatment baseline), and at 1, 3 and 12 months after the start of placebo or drug treatment. […] In this plot, the decrease in prostate volume by 10% or more was used as the definition of drug response.

[2] = system: total PSA, proPSA, free PSA and BPSA in serum; experiment: Serum PSA forms at Time 0 and 1 month of dutasteride treatment; drug response = IPSS decrease of 2 or more at 12 months (Example II); assay type: in vivo, men
Procedure: as §1
The concentrations of total PSA, free PSA, proPSA, and BPSA were examined at Time 0 (pretreatment baseline) and at 1 month after drug treatment. Drug response was defined as men who had improvement (decrease) in their IPSS of equal to 2 or greater after 12 months of treatment. […] The increases in the ratio of BPSA to total PSA and the ratio of BPSA to free PSA were also highly significant.
Another method of determining a cutoff for clinical utility is to calculate the Odds Ratio of a response to drug treatment at 12 months, based on the percentage change in a measured parameter at 1 month. In this case, the odds of responding to the drug (drop of 2 or more in the IPSS at 12 months) increases with increasing ratio of BPSA to proPSA at 1 month. […] With a >250% increase of BPSA to proPSA ratio over baseline at 1 month, there is at least a 2-fold increase in the odds of having a drug response at 12 months. An Odds Ratio of at least 2 is the preferred embodiment of the invention. Using Odds Ratio as a means to set a cutoff for the increase in the ratio of BPSA to proPSA would have a preferred cutoff of 250%.

[3] = about 1 month after drug administration, men with 10% or greater decrease in prostate volume at 12 months
[4] = median after 1 month of drug, 0.5 mg per day, men with decrease of 10% or more in prostate volume at 12 months
[5] = median, pretreatment baseline, drug-treated men with decrease of 10% or more in prostate volume at 12 months
[6] = Table 3, samples with a decrease of 2 or more in IPSS
[7] = about 1 month, IPSS reduction of 2 or greater at 12 months as drug response
[8] = median after 1 month of drug, 0.5 mg per day, men with improvement in IPSS of 2 or more at 12 months
[9] = median, pretreatment baseline, drug-treated men with improvement in IPSS of 2 or more at 12 months

## C[C@]12C=CC(=O)N[C@@H]1CC[C@@H]1[C@@H]2CC[C@]2(C)[C@@H](C(=O)Nc3cc(C(F)(F)F)ccc3C(F)(F)F)CC[C@@H]12 [dutasteride]
[1]; 3 months of drug treatment
  total PSA and free PSA levels at 3 months: the levels decrease at 3 months
[1]; [3]
  decrease in proPSA: 48%
  increase in BPSA: 86%
  increase of the ratio of BPSA to PSA: 78%
  increase of the ratio of BPSA to free PSA: 52%
  increase of the ratio of BPSA to proPSA over the baseline ratio: 450%
[1]; drug responders: decrease in prostate volume by 10% or more after 12 months
  change in total PSA, free PSA, or the ratio of free to total PSA at 1 month: no significant change
[1]; drug-treated men with less than 10% decrease in prostate volume at 12 months
  change in BPSA at 1 month in drug non-responders: no significant increase
[1]; [4]
  BPSA, 1 Month: 0.186 ng/mL
  BPSA/free PSA, 1 Month: 0.230
  BPSA/proPSA, 1 Month: 2.26
  BPSA/total PSA, 1 Month: 0.050
  Free PSA, 1 Month: 0.76 ng/mL
  Free PSA/total PSA, 1 Month: 0.214
  Total PSA, 1 Month: 3.14 ng/mL
  proPSA, 1 Month: 0.097 ng/mL
[1]; [5]
  BPSA, Time 0: 0.100 ng/mL
  BPSA/free PSA, Time 0: 0.151
  BPSA/proPSA, Time 0: 0.499
  BPSA/total PSA, Time 0: 0.028
  Free PSA, Time 0: 0.70 ng/mL
  Free PSA/total PSA, Time 0: 0.204
  Total PSA, Time 0: 3.02 ng/mL
  proPSA, Time 0: 0.204 ng/mL
[1]; three months after the start of drug administration, FIG. 1
  BPSA level at three months vs baseline: decline below the baseline level
[2]; [6]
  BPSA, median value at 1 month, Drug: 0.091, 0.151 ng/ml
  BPSA/free PSA, median value at 1 month, Drug: 0.228
  BPSA/total PSA, median value at 1 month, Drug: 0.032, 0.046
  Free PSA, median value at 1 month, Drug: 0.62, 0.67 ng/ml
  Free PSA/total PSA, median value at 1 month, Drug: 0.22, 0.21
  Total PSA, median value at 1 month, Drug: 3.00, 3.08 ng/ml
[2]; [7]
  decrease in proPSA: 41%
  increase in BPSA to proPSA ratio over baseline: 230%
  increase in BPSA/free PSA ratio: 44%
  increase in BPSA/total PSA ratio: 59%
[2]; about 1 month, IPSS reduction of 2 or greater at 12 months as drug response, not significant
  increase in BPSA: 25%
[2]; [8]
  BPSA, 1 Month: 0.151 ng/mL
  BPSA/free PSA, 1 Month: 0.228
  BPSA/proPSA, 1 Month: 1.32
  BPSA/total PSA, 1 Month: 0.046
  Free PSA, 1 Month: 0.67 ng/mL
  Free PSA/total PSA, 1 Month: 0.21
  Total PSA, 1 Month: 3.14 ng/mL
  proPSA, 1 Month: 0.103 ng/mL
[2]; [9]
  BPSA, Time 0: 0.120 ng/mL
  BPSA/free PSA, Time 0: 0.158
  BPSA/proPSA, Time 0: 0.584
  BPSA/total PSA, Time 0: 0.029
  Free PSA, Time 0: 0.77 ng/mL
  Free PSA/total PSA, Time 0: 0.19
  Total PSA, Time 0: 3.68 ng/mL
  proPSA, Time 0: 0.253 ng/mL
[2]; men with IPSS improvement of less than 2
  difference in any PSA-related parameter, Time 0 vs 1 month, drug non-responders: None of the placebo samples, or the men with IPSS improvement of less than 2 (drug non-responders), showed statistically a significant difference
